Values quoted from earlier work in patent publication US20230106284A1, “SYSTEM AND METHOD FOR GENERATING POTENTIAL DRUG COMPOSITIONS FOR DISEASE TARGET” (Innoplexus AG, priority 2020, published 2023).

Conditions: oral delivery

- bioavailability: about 70%
- volume of distribution: 14.37±2.69 litter
SMILES: O=C(O)c1ccc(-n2nc(-c3ccccc3O)nc2-c2ccccc2O)cc1 [DFX, deferasirox]
